Test results: US10596166B2, “Combination composition comprising huperzine” (priority 2015, dated 2020)

How the values were obtained:
[1] = tested on: primary cortical neurons injured by glutamate; test: glutamate toxicity on primary cortical neurons (neuron survival, neurite network); assay type: cell-based, rat; details: glutamate 40 μM, 20 min
Description: Rat cortical neurons were cultured as described by Singer et al., 1999 [J. Neuroscience 19(7), 2455-2463] and Callizot et al. 2013 [J. Neurosc. Res. 91(5), 706-716].
Briefly, pregnant females (Wistar; JanvierLabs, St Berthevin, France) at 15 days of gestation were killed by cervical dislocation. Foetuses were collected and immediately placed in ice-cold L15 Leibovitz medium (Pan Biotech, Aidenbach, Germany, Batch: 4120413) with a 2% penicillin (10,000 U/ml) and streptomycin (10 mg/ml) solution (PS; Pan Biotech, Aidenbach, Germany) and 1% bovine serum albumin (BSA; Pan Biotech, Aidenbach, Germany). Cortex was treated for 20 min at 37° C. with a trypsin-EDTA (Pan Biotech, Aidenbach, Germany) solution at a final concentration of 0.05% trypsin and 0.02% EDTA. The dissociation was stopped by addition of Dulbecco's modified Eagle's medium (DMEM) with 4.5 g/liter of glucose (Pan Biotech, Aidenbach, Germany), containing DNAse I grade II (final concentration 0.5 mg/ml; Pan Biotech, Germany) and 10% fetal calf serum (FCS; Invitrogen, Cergy Pointoise, France). Cells were mechanically dissociated by three forced passages through the tip of a 10-ml pipette. Cells were then centrifuged at 515 g for 10 min at 4° C. The supernatant was discarded, and the pellet was resuspended in a defined culture medium consisting of Neurobasal medium (Invitrogen, Cergy Pointoise, France) with a 2% solution of B27 supplement (Invitrogen, Cergy Pointoise, France), 2 mmol/liter of L-glutamine (Pan Biotech, Aidenbach, Germany), 2% of PS solution, and 10 ng/ml of brain-derived neurotrophic factor (BDNF; Pan Biotech, Aidenbach, Germany). Viable cells were counted in a Neubauer cytometer, using the trypan blue exclusion test. The cells were seeded at a density of 30,000 per well in 96-well plates precoated with poly-L-lysine (Corning Biocoat, Tewksbury, USA) and were cultured at 37° C. in an air (95%)-CO2 (5%) incubator. The medium was changed every 2 days.
On day 13, the cultures were exposed for 20 minutes to glutamate 40 μM in the absence or presence of Huperzia serrata extracts. Then the cells were washed out and new fresh medium containing or not Huperzia serrata extracts was added for another 48 hours.
The cells were then fixed by a cold solution ethanol/acetic acid (95:5 v/v) for 5 minutes at −20° C. After permeabilization with 0.1% of saponin (Sigma), cells were incubated for 2 hours with mouse monoclonal antibody against microtubule-associated-protein 2 (MAP 2; Sigma) at dilution of 1/400 in PBS containing 1% foetal calf serum (Invitrogen) and 0.1% of saponin.
Neuron survival assessment: For each condition 6 wells were assessed, 20 pictures per well were taken using InCell Analyzer™ 1000 (GE Healthcare) with 20× magnification to assess cell bodies (MAP 2 staining). Analysis of picture was done using Developer software (GE Healthcare), the number of neurons per picture was recorded. A mean of neuron number of the 20 pictures was automatically calculated per well, then one data was provided per well (total of 6 raw data were provided per condition).
Neurite network length assessment: For each condition 6 wells were assessed, 20 pictures per well were taken using InCell Analyzer™ 1000 with 20× magnification (20 pictures at X20 representing ˜80% of the total well surface), to assess MAP-2 staining. Analysis of picture was done using Developer software, the total neurite length per picture was recorded. A mean neurite length of the 20 pictures was automatically calculated per well, then one data was provided per well (total of 6 raw data were provided per condition).
The protocol used in these assays is the same as described in example 1. After 13 days of neuron culture, the candidate compounds were solved in DMSO and diluted in culture medium. […]

[2] = tested on: mice; details: adult and aged mice; cited from earlier work
[3] = tested on: ALS patients; details: several months; cited from earlier work

In the case of `O=C(O)c1cc(O)c(O)c(O)c1` [GA, gallic acid], the neuron survival ([1]; 10 and 50 μM) is reported as about 80% and the neurite network ([1]; GA 10 pM to 50 μM) is reported as “no protection”.
For `CC1=C[C@H]2Cc3[nH]c(=O)ccc3[C@]3(C1)NCCC[C@H]23` [HupB, Huperzine B], the “memory retention and memory retrieval” value [2] is listed as “improved memory retention and memory retrieval”.
In the case of `Nc1nc2ccc(OC(F)(F)F)cc2s1` [Riluzole], the prolongation of survival [3] is listed as about 7%.
For `COc1cc(/C=C/C(=O)O)cc(OC)c1O` [SA, sinapic acid], the neuron survival ([1]; 100, 10 and 1 nM) was about 80%, the neurite network ([1]; SA 10 pM to 50 μM) was “no protective effect” and the neuron survival ([1]; SA at the lowest concentrations) was “inactive”.
In the case of `O=C(O)/C=C/c1ccc(O)cc1` [pCouA, para-coumaric acid], the neuron survival ([1]; 100 nM and 1 μM) is reported as about 80%, the neurite network ([1]; only 1 μM) is reported as “protective effect” and the “survival and neurite network” value ([1]; p-CouA at the lowest concentrations) is reported as “inactive”.
